# Source: US10000771B2, “Nuclear targeting sequences” (Yeda Research and Development Co. Ltd., priority 2007, dated 2018)
# Ends that are not written are not given here. 2GFP = dimer of GFP proteins
# Key:
# Format in all cases: cell-based
# CHO cells [1] = assay: Fluorescence microscopy of ERK2 constructs (subcellular localization)
# Experimental: FIGS. 1A-1R are photomicrographs illustrating the role of SPS in the non-regulated accumulation of ERK2 in the nucleus. CHO (FIGS. 1A-F and 1M-R) or COS7 cells (FIGS. 1G-L) were grown on cover slips and transfected with WT-ERK2, or the mutants 244-6A and Δ244-6. Twenty-four hr following transfection, the cells were serum-starved (16 hr), fixed, stained with DAPI and visualized using a fluorescent microscope.
# FIGS. 2A-2X are photomicrographs illustrating the role of SPS in the stimulated nuclear translocation of ERK2. CHO cells were grown on cover slips and co-transfected with HA-MEK1 together with either WT-ERK2, 244-6A, or Δ244-6. Twenty-four hr after transfection, the cells were serum starved for 16 hours, treated with TPA (250 nM, 15 min), except in WT-10 where the cells were treated with 10 nM TPA for 15 min. After treatments the cells were fixed and stained with either anti-HA Ab or DAPI.
# FIGS. 5A-5F are photomicrographs illustrating that mutating the Ser residues in the SPS to Glu induces the nuclear accumulation of ERK2. CHO cells were grown on cover slips and transfected with WT-GFP-ERK2 (WT), APA-GFP-ERK2 (APA), or EPE-GFP-ERK2 (EPE). […]
# Immunofluorescence Microscopy. […] Slides were visualized using a fluorescence microscope (Nikon, Japan) at 400× magnifications. […]
# CHO cells [2] = assay: Fluorescence microscopy of 2GFP chimeras (subcellular localization); details: 24 hr post transfection, serum-starved
# Experimental: FIGS. 8A-8H are photomicrographs illustrating that SPS, APA, and EPE peptides fused to a 2GFP chimera modify its subcellular localization. CHO cells were grown on cover slips and transfected with 19 amino acid from the kinase insert domain of ERK2 including the SPS region (GFP-SPS) fused to a 2GFP chimera and with the same chimeras with substitution of the Ser to Ala (GFP-APA) or substitution to Glu (GFP-EPE). Twenty-four hr later, the cells were serum-starved for 16 hr, fixed, stained with DAPI and visualized by a fluorescence microscope.
# Immunofluorescence Microscopy. Cells were fixed (30 min in 3% paraformaldehyde in PBS or 10 min with ice-cold methanol), followed by 5-min permeabilization with 0.2% Triton X-100 in PBS (23° C.). The fixed cells were sequentially incubated with the appropriate Abs (45 min) followed by rhodamine-conjugated secondary Abs (45 min) and DAPI. Slides were visualized using a fluorescence microscope (Nikon, Japan) at 400× magnifications.
# To validate the general importance of the SPS domain, a 19 amino acid sequence surroundings the SPS or the APA and EPE mutants was fused to a dimer of GFP proteins (2GFP). Cellular distribution of the chimeras was detected in CHO cells 24 hr post transfection of the GFP constructs.
# COS7 cells = assay: Subcellular fractionation of 2GFP chimeras
# Experimental: FIG. 9A is an autoradiograph illustrating the subcellular fractionation of transfected SPS, APA, and EPE peptides fused to a 2GFP in COS7 cells. Western blot analysis of aliquots of the fractions were stained with anti GFP Ab to detect the different chimaras, and with anti tubulin and anti c-Jun Abs as markers for the cytoplasmic and nuclear fractions respectively.
# Cellular Fractionation: Transfected COS7 cells were starved (0.1% FBS) for 16 h, after which they were washed with ice-cold PBS, suspended in ice-cold buffer H, and centrifuged (12,000×g, 5 min). Then, the nuclear and cytosolic fractions were isolated as described [H. Rubinfeld, T. Hanoch, R. Seger, J. Biol. Chem. 274, 30349 (1999)]. Briefly, the pellets were suspended in 0.1% NP-40 followed by centrifugation (12,000×g, 5 min). The supernatant, containing the cytosolic fraction, was boiled in sample buffer. The pellet was suspended in extraction buffer (420 mM Nacl, 50 mM β-glycerophosphate, 0.5 mM Na3VO4, 1.5 mM MgCl2, 0.2 mM EDTA, 1 mM DTT, 25% glycerol), incubate on ice for 10 min, sonicated (50 W, 2×7 sec), and centrifuged (12,000×g, 5 min). The supernatant, containing the nuclear fraction, was subjected to Western blot.
Substance,"localization upon TPA stimulation (CHO cells [1]; CHO cells cotransfected with MEK1, TPA 250 nM)","localization at equivalent TEY phosphorylation levels (CHO cells [1]; CHO cells cotransfected with MEK1, TPA 10 nM for WT-ERK2 and 250 nM for the mutants)",cellular distribution (CHO cells [2]),localized in the nucleus (COS7 cells) [%]
"WT-ERK2: wild-type ERK2 fused to GFP, prepared in pEGFP C1 [reference compound]",translocated into the nucleus upon TPA stimulation,localized to the nucleus,,
2GFP-SPS: 2GFP with the 19 amino acid stretch containing the SPS of ERK2 (SEQ ID NO: 6) fused to its C terminus (2GFP-LDQLNHILGILGSPSQEDL),,,localized throughout the cell,15
